Data taken from BindingDB's records for patent US10882866 (Boehringer Ingelheim International GmbH, 2021).

Target: T1, E3 ubiquitin-protein ligase Mdm2 [23-117] (Human, UniProt Q00987)
T1 construct: 23-117
Assay: Inhibition AlphaScreen Assay
Description: A mix consisting of 20 nM GST-MDM2 protein (aa 23-117) and 20 nM biotinylated p53 wt peptide (encompassing aa 16-27 of wt human p53, amino acid sequence QETFSDLWKLLP-Ttds-Lys-Biotin, molecular weight 2132.56 g/mol) is prepared in assay buffer (50 mM Tris/HCl pH 7.2; 120 mM NaCl; 0.1% bovine serum albumin (BSA); 5 mM dithiothreitol (DTT); 1 mM ethylenediaminetetraacetic acid (EDTA); 0.01% Tween 20). 30 μL of the mix is added to the compound dilutions and incubated for 15 min at rt while gently shaking the plate at 300 rounds per minute (rpm). Subsequently, 15 μL of premixed AlphaLISA Glutathione Acceptor Beads and AlphaScreen Streptavidin Donor Beads from PerkinElmer (in assay buffer at a concentration of 10 μg/mL each) are added and the samples are incubated for 30 min at rt in the dark (shaking 300 rpm). Afterwards, the signal is measured in a PerkinElmer Envision HTS Multilabel Reader using the AlphaScreen protocol from PerkinElmer.Each plate contains negative controls where biotinylated p53-peptide and GST-MDM2 are left out and replaced by assay buffer. Negative control values are entered as low basis value when using the software GraphPad Prism for calculations.

T1 sequence (Q00987 23-117): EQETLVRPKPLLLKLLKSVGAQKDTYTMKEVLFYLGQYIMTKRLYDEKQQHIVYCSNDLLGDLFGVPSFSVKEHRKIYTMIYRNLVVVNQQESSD

## O=C(O)c1ccc2c(c1)nc1n2CC[C@H]2[C@@H]1[C@H](c1cccc(Cl)c1F)[C@]1(C(=O)Nc3cc(Cl)ccc31)N2CC1CC1 [US10882866, Example Ib-171]
  IC50: 10 nM
